The values below come from US10981932B2, “Macrocyclic indole derivatives” (Bayer Aktiengesellschaft, priority 2016, dated 2021).

Several values for one entry are separate records, joined by “and”; a condition that tells them apart may be missing. Equal entries are not always repeated. Structures can show the parent of a compound that is named as a salt. Where two headings read alike, the source gives them in different places.

The conditions of data set [1]: from C=CCOCc1nn(C)c(C)c1-c1cccc2c(CCCOc3cccc4ccccc34)c(C(=O)OCC)n(CC=C)c12; rcm bond; Grubbs 2nd generation catalyst; dichloromethane; 77.8 mM; 25.0 °C; 16.0 h.
The target in the next data set is MCL-1 (Homo sapiens, UniProt Q07820). Briefly: Protein-protein interaction assay MCL-1/Noxa BH3 peptide (MCL-1 assay), TR-FRET. The format is binding. Conditions: MBP-MCL-1 / Noxa BH3-derived peptide, median. The procedure, abridged: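 Inhibition values were normalized between DMSO controls with all reagents and controls lacking MCL-1. The binding competition used 1 nM MBP-MCL-1 in pH 7 Tris buffer containing 50 mM KF and 100 mM NaCl, with a 10 min compound preincubation at 22 °C.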
Chain of MCL-1 (Q07820 whole entry): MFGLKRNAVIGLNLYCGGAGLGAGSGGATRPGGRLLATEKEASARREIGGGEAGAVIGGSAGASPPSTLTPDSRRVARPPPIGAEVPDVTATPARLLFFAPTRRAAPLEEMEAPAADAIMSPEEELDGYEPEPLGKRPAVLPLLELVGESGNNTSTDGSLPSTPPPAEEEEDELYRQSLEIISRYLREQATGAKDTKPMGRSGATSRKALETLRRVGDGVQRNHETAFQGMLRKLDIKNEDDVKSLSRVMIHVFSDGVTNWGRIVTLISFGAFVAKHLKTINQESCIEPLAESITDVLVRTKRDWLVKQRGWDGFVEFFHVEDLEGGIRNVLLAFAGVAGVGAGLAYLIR

Data set [2] has as its system SUDHL5. Nature of the data set: Induction of caspase-3/7 activity (Caspase-Glo 3/7), SUDHL5. The format is cell-based. Particulars: caspase-3/7 induction, SUDHL5 cells, 3 h treatment; median. The essentials: (§1)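 Apoptosis induction measured as caspase-3/7 activity (Caspase-Glo 3/7) in DLBCL lines after 3 h treatment at 37 °C; EC50 derived relative to the reference compound's maximal induction, with C0 fixed at 1.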

In data set [3] the test system is SUDHL10. Briefly: Induction of caspase-3/7 activity (Caspase-Glo 3/7), SUDHL10. The format is cell-based. Particulars: caspase-3/7 induction, SUDHL10 cells, 3 h treatment; median. The essentials:
as §1

Data set [4] concerns SUDHL5. Nature of the data set: Anti-proliferative effect (CellTiter-Glo, 72 h), SUDHL5. The format is cell-based. Conditions: SUDHL5 cells, antiproliferation, median, read-out: Antiproli SUDHL5 [M] (median). The essentials:
(§2)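 Luminescence from CellTiter-Glo, read 10 min after reagent addition, reports viable cell content after 72 h of compound treatment at 37 °C. A reference plate read at day 0 gives the starting baseline.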
Background: Cellular ATP, detected with luciferase, serves as a proxy for viable cell number.

A further data set has as its system A2780. Briefly: Anti-proliferative effect (CellTiter-Glo, 72 h), A2780. The data set is classed as cell-based. Conditions: A2780 cells, median, read-out: IC50 antiproliferation assay A2780 [M] (median). The procedure, abridged:
as §2

For a further data set, the system named is MV-4-11. Briefly: Anti-proliferative effect (CellTiter-Glo, 72 h), MV-4-11. The format is cell-based. Conditions: MV-4-11 cells, median, read-out: IC50 antiproliferation assay MV-4-11 [M] (median). The essentials:
as §2

The test system of a further data set is SK-MEL-2. Briefly: Anti-proliferative effect (CellTiter-Glo, 72 h), SK-MEL-2. The data set is classed as cell-based. Particulars: Homo sapiens, SK-MEL-2 cells, median, read-out: IC50 antiproliferation assay SK-MEL-2 [M] (median). As to the method: Assessment of the Anti-Proliferative Effect of Compounds in Different Cell Lines
(§3) The impact of compounds on the proliferation of different cell lines was assessed using the CellTiter-Glo® Luminescent Cell Viability reagent from Promega (G7573). Of note, SUDHL10 and SUDHL5 (DLBCL), NCI-H929 (Multiple Myeloma), A2780 (ovarian carcinoma) as well as MV-4-11(AML) cells are sensitive to MCL-1 inhibition.
(§4) In parallel, cells were plated in a reference (day 0) plate for time zero determination.
(§5) Rim wells were excluded. The cells were incubated for 72 h hours in a humidified incubator at 37° C. The day 0 plate was measured by adding 30 μl/well of CTG solution (CellTiter-Glo® Luminescent Cell Viability reagent, Promega G7573) to time zero wells in the reference plate followed by a 10 minutes incubation and luminescence reading at 0.1 ms, using the PHERAstar FS microplate reader (BMG Labtech).
(§6) After 72 h incubation, the treated plates were measured in the same way as the day 0 plate mentioned above.

Another data set has as its system NCI-H1703. Briefly: Anti-proliferative effect (CellTiter-Glo, 72 h), NCI-H1703. The format is cell-based. Particulars: Homo sapiens, NCI-H1703 cells, median, read-out: IC50 antiproliferation assay NCI-H1703 [M] (median). As to the method: as §3, §4, §5, §6
The subject of data set [5] is SUDHL5. Nature of the data set: Induction of cytotoxicity (CellTiter-Glo, 5 h), SUDHL5. Conditions: read-out: Cytotox SUDHL5 [M] (median), SUDHL5 cells, cytotoxicity induction, CellTiter-Glo, median.
Data set [6] has as its system SUDHL10. Nature of the data set: Induction of cytotoxicity (CellTiter-Glo, 5 h), SUDHL10. Conditions: read-out: Cytotox SUDHL10 [M] (median), SUDHL10 cells, cytotoxicity induction, CellTiter-Glo, median.
The subject of data set [7] is SUDHL10. Nature of the data set: Anti-proliferative effect (CellTiter-Glo, 72 h), SUDHL10. Conditions: SUDHL10 cells, antiproliferation, 72 h incubation, median, read-out: Antiproli SUDHL10 [M] (median). The format is cell-based. The essentials:
as §2

The test system of the next data set is OPM2. Nature of the data set: Anti-proliferative effect (CellTiter-Glo, 72 h), OPM2. The format is cell-based. Conditions: OPM2 cells, median, read-out: IC50 antiproliferation assay OPM2 [M] (median). The procedure, abridged: as §2
For data set [8], the system named is SUDHL5.
Data set [9] relates to SUDHL10.

`CCOC(=O)c1c(CCCOc2cccc3ccccc23)c2cccc3c2n1CC=CCOCc1nn(C)c(C)c1-3` (mixture of isomers): the ring closure, yield of all isomers in [1] turned out to be 15%.

Consider `CCc1nn(C)c2c1-c1c(C)ccc3c(CCCOc4cccc5cc(F)ccc45)c(C(=O)O)n(c13)CCCCOC2` (single isomer, unassigned) [Example 267, (+)-3-ethyl-7-{3-[(6-fluoronaphthalen-1-yl)oxy]propyl}-1,4-dimethyl-1,10,11,12,13,15-hexahydropyrazolo[4′,3′:9,10][1,6]oxazacycloundecino[8,7,6-hi]indole-8-carboxylic Acid], for which the IC50 on MCL-1 was determined as 0.00037 µM; in the data set on SUDHL5 [4] (72 h incubation), 1.89e-06 M; in the data set with A2780 (Homo sapiens, A2780, 72 h), 2.15e-05 M; in the data set on MV-4-11 (Homo sapiens, MV4-11, 72 h) it was 7.02e-06 M; with SK-MEL-2, 2e-05 M; in the data set on NCI-H1703, 1.36e-05 M. For the same compound, the IC50 came out at 1.11e-06 M with SUDHL5 [5] (5 h incubation) and 3.66e-06 M in the data set with SUDHL10 [6] (5 h incubation). Further, the figures for the concentration giving a half-maximal response (EC50) in the data set with SUDHL5 [2] and in the data set on SUDHL10 [3] were 1.14 µM and 4.6 µM, respectively.

Turning to `CCc1c2c(nn1C)COCCCCn1c(C(=O)O)c(CCCOc3cccc4cc(F)ccc34)c3cccc-2c31` (single isomer, unassigned) [Example 282, (+)-3-ethyl-7-{3-[(6-fluoronaphthalen-1-yl)oxy]propyl}-2-methyl-2,10,11,12,13,15-hexahydropyrazolo[4′,3′:9,10][1,6]oxazacycloundecino[8,7,6-hi]indole-8-carboxylic acid-N-ethylethanamine Salt], the IC50 is 0.00109 µM on MCL-1; 5.78e-07 M with SUDHL5 [4] (72 h incubation); 8.66e-06 M with A2780 (Homo sapiens, A2780, 72 h); 3.69e-06 M with MV-4-11; 1.25e-05 M with SK-MEL-2; 4.85e-06 M in the data set on NCI-H1703. Besides, the IC50 stood at 6.16e-07 M in the data set on SUDHL5 [5] (5 h incubation) and 7.8e-07 M in the data set on SUDHL10 [6] (5 h incubation). Further, the concentration giving a half-maximal response (EC50) (commonly the concentration at which the effect is half-maximal) in the data set with SUDHL5 [2] was determined as 0.385 µM; in the data set on SUDHL10 [3], 0.906 µM.

With `Cc1c2c(nn1CCN1CCOCC1)COCCCCn1c(C(=O)O)c(CCCOc3cccc4cc(F)ccc34)c3cccc-2c31` (single isomer, unassigned) [Example 285, (+)-7-{3-[(6-fluoronaphthalen-1-yl)oxy]propyl}-3-methyl-2-[2-(morpholin-4-yl)ethyl]-2,10,11,12,13,15-hexahydropyrazolo[4′,3′:9,10][1,6]oxazacycloundecino[8,7,6-hi]indole-8-carboxylic acid-N-ethylethanamine Salt], the IC50 is 0.000782 µM on MCL-1; 9.39e-07 M with SUDHL5 [4] (72 h incubation); 1.22e-05 M in the data set on A2780 (Homo sapiens, A2780, 72 h); 3.61e-06 M in the data set on MV-4-11; 1.09e-05 M in the data set with SK-MEL-2; 6.98e-06 M in the data set on NCI-H1703. Further, the figures for the IC50 with SUDHL5 [5] (5 h incubation) and in the data set on SUDHL10 [6] (5 h incubation) were 7.5e-07 M and 2.81e-06 M, respectively. The EC50 came to 0.646 µM with SUDHL5 [2] and 1.41 µM in the data set on SUDHL10 [3].

As for `CCc1nn(C)c2c1-c1cccc3c(CCCOc4cccc5cc(F)ccc45)c(C(=O)O)n(c13)CCCCOC2` (single isomer, unassigned) [Example 288, (+)-3-ethyl-7-{3-[(6-fluoronaphthalen-1-yl)oxy]propyl}-1-methyl-1,10,11,12,13,15-hexahydropyrazolo[4′,3′:9,10][1,6]oxazacycloundecino[8,7,6-hi]indole-8-carboxylic Acid], the IC50 at MCL-1 is 0.00149 µM; with SUDHL5 [4] (72 h), 1.54e-06 M; with A2780 (Homo sapiens, A2780, 72 h), more than 3.3e-05 M; in the data set on MV-4-11 (Homo sapiens, MV4-11, 72 h), 9.86e-06 M; with SK-MEL-2, more than 3.3e-05 M; in the data set with NCI-H1703, 1.76e-05 M. Further, the IC50 was 1.68e-06 M in the data set with SUDHL5 [5] (5 h) and 6.54e-06 M in the data set on SUDHL10 [6] (5 h). Further, the concentration giving a half-maximal response (EC50) came to 1.57 µM in the data set with SUDHL5 [2] and 5.85 µM with SUDHL10 [3].

`Cn1nc(CN2CCOCC2)c2c1COCCCCn1c(C(=O)O)c(CCCOc3cccc4ccccc34)c3cccc-2c31` (single isomer, unassigned; enantiomer 1) [Example 136, 1-methyl-3-(morpholin-4-ylmethyl)-7-[3-(naphthalen-1-yloxy)propyl]-1,10,11,12,13,15-hexahydropyrazolo[4′,3′:9,10][1,6]oxazacycloundecino[8,7,6-hi]indole-8-carboxylic Acid (Enantiomer 1)]: the IC50 against MCL-1 is 0.0228 µM; with SUDHL10 [7] it was 8.9e-06 M; with OPM2, more than 3.3e-05 M; in the data set on A2780, more than 3.3e-05 M; in the data set on SUDHL5 [8], more than 33 µM; in the data set on SUDHL10 [9] it was more than 33 µM. The EC50 on SUDHL5 [2] and at SUDHL10 [3] was more than 33 µM in each case.

For the compound `CCc1nn(CCN2CCOCC2)c2c1-c1cccc3c(CCCOc4cccc5ccccc45)c(C(=O)O)n(c13)CCCCOC2` (single isomer, unassigned; enantiomer 1) [Example 199, 3-ethyl-1-[2-(morpholin-4-yl)ethyl]-7-[3-(naphthalen-1-yloxy)propyl]-1,10,11,12,13,15-hexahydropyrazolo[4′,3:9,10][1,6]oxazacycloundecino[8,76-hi]indole-8-carboxylic Acid (Enantiomer 1)], the IC50 against MCL-1 is 0.00126 µM; with SUDHL5 [4] (72 h incubation), 1.65e-06 M; with SUDHL10 [7], 1.13e-06 M; in the data set with A2780 (Homo sapiens, A2780, 72 h) it was 1.57e-05 M; in the data set on MV-4-11 (Homo sapiens, MV4-11, 72 h), 7.51e-06 M; in the data set on SK-MEL-2, 2.9e-05 M. Besides, the IC50 was determined as 1.46e-05 M in the data set with NCI-H1703, 9.25e-07 M in the data set with SUDHL5 [5] (5 h incubation) and 2.92e-06 M with SUDHL10 [6] (5 h incubation). Besides, the results for the EC50 in the data set with SUDHL5 [2] and in the data set with SUDHL10 [3] were 0.899 µM and 3.46 µM, respectively.

As to `Cn1nc(CN2CCOCC2)c2c1COCCCn1c(C(=O)O)c(CCCOc3cccc4ccccc34)c3cccc-2c31` (single isomer, unassigned; enantiomer 2) [Example 140, 9-methyl-11-(morpholin-4-ylmethy)-1-[3-(naphthalen-1-yloxy)propyl]-5,6,8,9-tetrahydro-4H-pyrazolo[4′,3′:8,9][1,5]oxazecino[7,6,5-hi]indole-2-carboxylic Acid (Enantiomer 2)], the IC50 is 0.0114 µM at MCL-1; 1.17e-05 M in the data set on SUDHL5 [4] (72 h incubation); 1.79e-05 M in the data set with SUDHL10 [7]; more than 3.3e-05 M in the data set on OPM2; more than 3.3e-05 M in the data set on A2780; 2.27e-05 M in the data set on MV-4-11. The IC50 with SUDHL5 [8] was 16.7 µM. For the same compound, the EC50 on SUDHL5 [2] is 14.9 µM; on SUDHL10 [3] it was 20.3 µM and > 33 µM.

Turning to `Cc1c2c(nn1CC(F)(F)F)COCCCCn1c(C(=O)O)c(CCCOc3cccc4ccccc34)c3cccc-2c31` [Example 242, 3-methyl-7-[3-(naphthalen-1-yloxy)propyl]-2-(2,2,2-trifluoroethyl)-2,10,11,12,13,15-hexahydropyrazolo[4′,3′:9,10][1,6]oxazacycloundecino[8,7,6-hi]indole-8-carboxylic Acid], the IC50 on MCL-1 was 0.258 µM; in the data set on SUDHL5 [4] (72 h incubation) it was 1.52e-06 M; with SUDHL10 [7] it was 2.74e-06 M; in the data set with A2780 it was 2.59e-06 M; in the data set on SUDHL5 [8] it was more than 33 µM; with SUDHL10 [9], more than 33 µM. Also, the EC50 at SUDHL5 [2] and at SUDHL10 [3] was more than 33 µM in each case.
